# Test results: patent US20220267374A1, “IMMUNITY INDUCER AND PHARMACEUTICAL COMPOSITION FOR PREVENTING OR TREATING AGING-RELATED DISEASES” (priority 2019, published 2022)
# Ends that are not written are not given here.
# What was measured:
# [1] = Metabolic test (glucose tolerance test and insulin tolerance test); format: in vivo, C57BL/6 mice; details: HFD-fed mice, 16 weeks of age, s.c. vaccination at 8 weeks of age; compared to control vaccine; FIG. 2I
# Method: Mice were bred individually from 1 week before the test. On the day of the glucose tolerance test (GTT), mice were fasted for 6 hours, followed by intraperitoneal injection of glucose at a dose of 1 g/kg (body weight) in the early afternoon. For the insulin tolerance test (ITT), mice were intraperitoneally administered with human insulin (1 U/kg (body weight)). After administration of glucose or insulin, tail venous blood was collected 0, 15, 30, 60 and 120 minutes later, and the blood glucose level was measured with a glucose analyzer (Sanwa Chemical Research Institute).
# A metabolic test was performed using the same method as in “5.” of Reference Example 1, except that C57BL/6 mice (16 weeks of age) bred by feeding HFD from 4 weeks of age and administered with peptide vaccine 1, peptide vaccine 2, or control vaccine by subcutaneous injection at a time point of 8 weeks of age were used. In FIG. 2I, “Cont vaccine” is a C57BL/6 mouse administered with a control vaccine, “Gpnmb vaccine 1” is a C57BL/6 mouse administered with peptide vaccine 1, and “Gpnmb vaccine 2” is a C57BL/6 mouse administered with peptide vaccine 2.
# GPNMB protein = experiment: Antibody titer by ELISA in plasma of vaccinated mice; format: in vivo, C57BL/6 mice; details: vs control vaccine group; KLH-bound peptide 20 μg with Titer Max Gold s.c. at 8 weeks of age, HFD-fed mice; plasma up to 6 weeks; FIG. 2A
# Method: First, the antibody titers of the obtained two peptide vaccines were examined. Peptide vaccine 1 or peptide vaccine 2 (20 μg) and Titer Max Gold adjuvant (Titer Max USA) conjugated with KLH as carrier protein for induction of cytotoxic antibody were mixed in two syringes according to the manufacturer's protocol for emulsification. Subsequently, eight-week-old C57BL/6 mice fed with HFD from 4 weeks of age were subcutaneously injected with KLH-binding antigen peptide (20 μg) with a Titer Max Gold adjuvant to induce cytotoxic antibodies. C57BL/6 mice in the control group were subcutaneously injected with a KLH solution (hereinafter, referred to as “control vaccine”) mixed with Titer Max Gold in an equal amount. Plasma was collected from the tail vein of each mouse immediately after administration of the peptide vaccine and after 2, 4, and 6 weeks for antibody titer analysis. The antibody titer produced by injection of each peptide was measured by ELISA. Specifically, first, a 96-well microtiter plate (Nunc-Immuno MicroWell 96-well solid plate, Thermo Scientific) was coated using a carbonate buffer containing peptide vaccine 1 or peptide vaccine 2 bonded to bovine serum albumin (BSA). […] After reacting with the TMB substrate (Sigma-Aldrich, T0440), the optical density was measured at 450 nm (0D450) using a microtiter plate reader (iMark microplate reader, Bio-Rad).
# GPNMB-positive cells = experiment: Analysis of Gpnmb-dependent luciferase activity (in vivo IVIS imaging); set-up: species or system Gpnmb-DTR mouse; details: Reference Example 1; HFD-fed Gpnmb-DTR mice, DT 50 μg/kg i.p. twice (12 and 14 weeks of age), 16 weeks of age; FIG. 1B
# Method: Gpnmb-DTR mouse bred by feeding normal diet or HFD for 4 weeks, and Gpnmb-DTR mouse bred by feeding HFD for 4 weeks, and then injecting DT (50 μg/kg body weight) at 2-week intervals (12 weeks of age and 14 weeks of age) intraperitoneally twice while continuing to feed HFD (16 weeks of age) were subjected to in vivo luciferase imaging analysis using the IVIS imaging system (Perkin Elmer). Mice were shaved ventrally, anesthetized with isoflurane (Wako Pure Chemicals Industries), and injected intraperitoneally with luciferin (150 mg/kg body weight) according to the manufacturer's instructions (Vivo-Glo; Promega). Luciferase activity was monitored 5 minutes after luciferin administration. Signals were analyzed using Living Image software (Perkin Elmer) to quantify luciferase activity. In FIG. 1B, “Before” is a Gpnmb-DTR mouse before HFD was fed (6 weeks of age), “HFD” is a Gpnmb-DTR mouse that was fed with HFD from 6 weeks of age and bred for 6 weeks (12 weeks of age), and “After DT” is a Gpnmb-DTR mouse that was bred by feeding HFD for 4 weeks and then injecting DT (50 μg/kg body weight) at 2-week intervals (12 weeks of age and 14 weeks of age) intraperitoneally twice while continuing to feed HFD (16 weeks of age). […]
substance,measurement,setting,value
"RSQHLRFPDR (also: KLH conjugate; listed as Mus musculus) [peptide vaccine 2, peptide of positions 150 to 159 of mouse GPNMB protein]",metabolic abnormality induced by HFD intake (glucose tolerance test and insulin tolerance test),[1],significantly improved
same,antibody titer against GPNMB protein,GPNMB protein,slightly higher
"diphtheria toxin [DT, reference compound]",abdominal luciferase activity (Gpnmb-dependent),GPNMB-positive cells,attenuated
